The values below come from patent US9943496B2, “Dietary supplement based on ethyl ferulate” (LABORATORIOS MINKAB, S. A. DE C. V., priority 2015, dated 2018).

One assay deals with β receptors. As to conditions: bovine satellite cells, in vitro; cited from earlier work.
The test system of a further assay is swine. Particulars: 50 ppm, swine confinement; cited from earlier work.
The test system of assay [1] is heifers. In words: Productive performance test of heifers supplemented with ethyl ferulate in the diet. It counts as in vivo, Bos taurus. Particulars: for Final weight: last 30 days of intensive feeding; for Final weight / Feed conversion / Daily gain / Feed intake: mean ± standard error; for Feed conversion / Daily gain / Feed intake: last 30 days; for Feed conversion: feed consumption/daily gain. How it is done: Productive performance test was conducted in the feedlot of a commercial farm, located in the state of Sonora, Mexico, at an altitude of 210 meters above sea level, latitude 29° 05′ 56″ and longitude 110° 57′ 15″ (INEGI, 2012).
Prior to the start of the study, 270 cattle (heifers) commercial beef producers crosses (of racial influence mainly Bos taurus), which were divided into three lots with uniform power days, racial origin and composition were selected. The animals were weighed individually and identified with plastic earring different color, to be distributed randomly according to a block design (3) complete random. To facilitate the handling of heifers and scheduling your humane slaughter, each block was postponed one week and was formed by three pens with 30 animals each.
Once done animals blocks, each pen within each block was completely randomized one of the following treatments: • Treatment CONT: Animals receiving the basal diet without additive (control). • Treatment FE5: Animals receiving the basal diet supplemented the last 30 days of fattening stage 5 ppm of ethyl ferulate. • Treatment FE10: Animals receiving the basal diet supplemented the last 30 days of the fattening phase with 10 ppm of ethyl ferulate.
The initial live weight of the animals was 484.68±2.84 kg. All animals were fed a basal diet with a ratio of forage:concentrate of 20:80, which was formulated to contain 1.62 Mcal of net energy gain/kg of feed, 12.7% crude protein, 0.91% Calcium and 0.27% phosphorus. The amount of ethyl ferulate per ton of feed was first added to the mineral premix and later it was incorporated into the automated experimental ration.
All animals were individually weighed at the beginning and end of the experimental test, for which an electronic scale Tru-Test 300 (Tru-Test Corporation, New Zealand) equipped with recording memory was used. Daily weight gain (GDP) was estimated by the difference between initial and final weight and divided by 30 (the feeding period).
Feed intake was recorded daily for corral, for which both the food offered and refused was weighed. Feed conversion per pen/treatment with the average food consumption ratio between GDP was also calculated.
(§1) Productive performance data were analyzed by ANOVA with a design of a randomized complete block using the method of generalized linear models (GLM) using initial weight as a covariate; data carcass quality were analyzed under a completely randomized design blocks. The variance analysis (mixed models procedure), included as a fixed effect to experimental treatments and as a random effect the initial weight of animals for productive performance data and final weight for carcass quality. The study data shelf life was analyzed using analysis of variance of two ways, considering the fixed effects of treatment and storage time. When differences between treatments were detected in productive performance variables and carcass quality, comparisons of means were performed by orthogonal contrasts. The following contrasts were tested: Contrast 1: Control vs FE5+FE10; Contrast 2: FE5 vs FE10. For data quality meat in the study of oxidative stability, the comparison of means was by the Tukey test. All data were processed in the statistical package NCSS (NCSS Version 8.0, 2012).

Assay [2] relates to heifers. The assay can be described thus: Sacrifice and evaluation of carcass quality of supplemented heifers. The assay is classed as in vivo, Bos taurus. As to conditions: for Backfat / Cold carcass yield / Hot yield carcass / Rib eye area / Cold carcass weight / Hot carcass weight: last 30 days; for Cold carcass weight: 24 h postmortem; for Hot carcass weight: mean ± standard error; for Marbling: USDA marbling score (Little 500-599, Modesto 600-699); for % de Choice or greater: percentage of carcass classified Choice or higher. As to the method: Once the productive performance test was finished, the animals were sacrificed following the current regulations.
The pH was measured at 45 min and 24 h postmortem in the Longissimus dorsi (LD) at the 12th intercostal space using a portable digital potentiometer brand HANNA HI 99163 (Mettler-Toledo Process Analytical Inc., Wilmington, Mass., USA). The weight of the hot carcass was recorded, then the carcasses were cooled to 0° C. for 24 h.
At 24 h postmortem the weight of the cold carcass was measured. In at least 36 carcasses per treatment, area in cm^2 rib eye, the thickness of back fat in mm, was evaluated. The degree of marbling was also evaluated following USDA guidelines (2000): Trace (300-399), Light (400-499), Little (500-599), Modest (600-699), Moderate (700-799), Slightly abundant (800-899). These determinations were made in the LD muscle to level 12th intercostal space. Finally, the quality level of the channel according to USDA (2000) was estimated, based on the degree of marbling and carcass physiological maturity: Select − (400-449), Select + (450-499) Choice − (500-599), Choice medium (600-699), Choice + (700-799), Prime (800 or greater).
as §1

For assay [3] the following is noted: compared with ferulic acid; cited from earlier work.
[4] abbreviates: contrast C1: Control vs FE5+FE10, P<0.05.
The mark [5] stands for this setting: FE supplemented vs control, P<0.05.

For the compound `COc1cc(/C=C/C(=O)O)ccc1O` [AF, Ferulic acid], the “Recognition by β receptors on the cell membrane” value with β receptors is reported as “recognized by β receptors”. The “Back fat thickness over the control group” value in the assay with swine was “decrease”.

In the assay with heifers [1] (FE5: 5 ppm/day), `CCOC(=O)/C=C/c1ccc(O)c(OC)c1` [ethyl ferulate] displayed a Final weight of 519.58 ± 5.4 kg, a Feed conversion of 8.78 ± 0.6 kg, a Daily gain of 1.13 ± 0.04 kg and a Feed intake of 8.11 ± 0.07 kg. In the assay on heifers [1] (FE10: 10 ppm/day), the Final weight is 520.20 ± 5.63 kg, the Feed conversion was found to be 7.25 ± 0.27 kg, the Daily gain came out at 1.23 ± 0.04 kg and the Feed intake turned out to be 8.09 ± 0.07 kg. Also, the “Less feed required to gain one kilogram of live weight” value in the assay with heifers [1] (FE supplemented heifers vs control) is on record as 4.3 kg. For the same compound, in the assay with heifers [1] (setting [4]), the “Improvement in feed conversion relative to control” value was 35% and the “Increase of daily gain (GDP) relative to control” value amounted to 26%. The “Thickness of the dorsal fat, effect of treatments” value in the assay on heifers [2] (5 and 10 ppm vs control, P>0.05) is on record as “not affected by treatments”. The “Marbling, 10 ppm FE regarding 5 ppm FE” value in the assay with heifers [2] (10 ppm vs 5 ppm) is “higher marbling”. In the assay on heifers [2] (FE5: 5 ppm/day), this compound gave a Backfat of 14.60 ± 1.05 mm, a Cold carcass yield of 61.77 ± 0.16%, a Hot yield carcass of 62.38 ± 0.15% and a Rib eye area of 85.67 ± 2.28 cm^2. Moreover, in the assay on heifers [2] (FE5: 5 ppm/day), the Cold carcass weight was 320.81 ± 3.25 kg, the Hot carcass weight was determined as 323.97 ± 3.25 kg, the Marbling was determined as 578.57 ± 16 and the “% de Choice or greater” value came out at 66.7%. In the assay with heifers [2] (FE10: 10 ppm/day), this compound had a Backfat of 15.82 ± 0.84 mm, a Cold carcass yield of 61.68 ± 0.19%, a Hot yield carcass of 62.39 ± 0.19% and a Rib eye area of 86.60 ± 1.87 cm^2. Moreover, in the assay on heifers [2] (FE10: 10 ppm/day), the Cold carcass weight is 320.50 ± 3.19 kg, the Hot carcass weight came out at 324.19 ± 3.23 kg, the Marbling is reported as 637.14 ± 15 and the “% de Choice or greater” value is on record as 80%. For the same compound, in the assay on heifers [2] (FE supplemented heifers vs control, P<0.001), the “Hot carcass weight (PCC) greater than control” value is 1.80%. In the assay with heifers [2] (setting [5]), the “Increase of cold carcass weight (PCF) vs control” value was 1.86% and the “Marbling of supplemented compared to non supplemented animals” value is “More marbling”. Further, the “Increase in carcass weight vs control” value with heifers [2] (hot carcass, FE supplemented vs control) is “more than 5 kg”. Besides, in assay [3], the “Antibacterial and antioxidant capacity” value is on record as “very similar to those of ferulic acid”.
